Among the data in patent US20240226115A1, “AXL INHIBITOR COMPOUNDS” (ARCUS BIOSCIENCES, INC., priority 2021, published 2024) are IC50 values, retold here.

For one assay, the target named is T1, Axl (Homo sapiens, UniProt P30530).
T1 sequence (P30530 26-894): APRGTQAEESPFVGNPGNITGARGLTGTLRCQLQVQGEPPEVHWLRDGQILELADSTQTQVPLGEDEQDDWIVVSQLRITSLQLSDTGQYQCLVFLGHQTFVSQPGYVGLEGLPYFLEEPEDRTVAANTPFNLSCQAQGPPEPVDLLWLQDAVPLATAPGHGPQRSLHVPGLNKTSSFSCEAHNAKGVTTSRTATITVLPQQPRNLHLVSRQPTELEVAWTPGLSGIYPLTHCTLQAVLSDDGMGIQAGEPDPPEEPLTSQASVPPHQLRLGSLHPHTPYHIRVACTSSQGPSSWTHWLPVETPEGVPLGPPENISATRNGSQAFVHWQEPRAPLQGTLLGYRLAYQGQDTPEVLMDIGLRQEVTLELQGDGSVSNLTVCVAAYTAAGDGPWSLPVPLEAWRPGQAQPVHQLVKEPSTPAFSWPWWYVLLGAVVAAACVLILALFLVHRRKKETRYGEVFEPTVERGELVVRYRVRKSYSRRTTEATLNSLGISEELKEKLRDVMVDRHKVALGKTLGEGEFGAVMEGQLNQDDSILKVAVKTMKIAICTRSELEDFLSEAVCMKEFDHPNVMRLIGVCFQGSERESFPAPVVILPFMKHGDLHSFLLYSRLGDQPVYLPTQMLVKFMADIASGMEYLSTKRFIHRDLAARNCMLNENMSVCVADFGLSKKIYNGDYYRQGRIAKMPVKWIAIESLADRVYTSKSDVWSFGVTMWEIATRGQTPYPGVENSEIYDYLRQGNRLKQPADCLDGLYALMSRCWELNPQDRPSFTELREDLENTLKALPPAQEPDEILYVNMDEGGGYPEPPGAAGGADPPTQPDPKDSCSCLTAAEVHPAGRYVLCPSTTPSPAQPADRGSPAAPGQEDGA
The experiment in a line: HTRF KinEASE-TK biochemical potency, AXL. Also noted: purchased Invitrogen. The note with it: 5 nM AXL, 700 μM ATP. Put shortly:
(§1)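 Enzyme preincubated with compound 1 h at RT; final 5 nM AXL or 1 nM TYRO3/MER, 800 nM TK substrate-biotin, 700 μM ATP, HEPES pH 7.4, MgCl2, 1% DMSO, 2 h at RT. HTRF 665/620 ratio read after streptavidin-XL665/cryptate antibody detection; percent activity relative to DMSO and pre-stopped controls.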

For another assay, the target named is T2, recombinant human TYRO3 (Homo sapiens, UniProt Q06418).
T2 construct: purchased Invitrogen
T2 sequence (Q06418 41-890): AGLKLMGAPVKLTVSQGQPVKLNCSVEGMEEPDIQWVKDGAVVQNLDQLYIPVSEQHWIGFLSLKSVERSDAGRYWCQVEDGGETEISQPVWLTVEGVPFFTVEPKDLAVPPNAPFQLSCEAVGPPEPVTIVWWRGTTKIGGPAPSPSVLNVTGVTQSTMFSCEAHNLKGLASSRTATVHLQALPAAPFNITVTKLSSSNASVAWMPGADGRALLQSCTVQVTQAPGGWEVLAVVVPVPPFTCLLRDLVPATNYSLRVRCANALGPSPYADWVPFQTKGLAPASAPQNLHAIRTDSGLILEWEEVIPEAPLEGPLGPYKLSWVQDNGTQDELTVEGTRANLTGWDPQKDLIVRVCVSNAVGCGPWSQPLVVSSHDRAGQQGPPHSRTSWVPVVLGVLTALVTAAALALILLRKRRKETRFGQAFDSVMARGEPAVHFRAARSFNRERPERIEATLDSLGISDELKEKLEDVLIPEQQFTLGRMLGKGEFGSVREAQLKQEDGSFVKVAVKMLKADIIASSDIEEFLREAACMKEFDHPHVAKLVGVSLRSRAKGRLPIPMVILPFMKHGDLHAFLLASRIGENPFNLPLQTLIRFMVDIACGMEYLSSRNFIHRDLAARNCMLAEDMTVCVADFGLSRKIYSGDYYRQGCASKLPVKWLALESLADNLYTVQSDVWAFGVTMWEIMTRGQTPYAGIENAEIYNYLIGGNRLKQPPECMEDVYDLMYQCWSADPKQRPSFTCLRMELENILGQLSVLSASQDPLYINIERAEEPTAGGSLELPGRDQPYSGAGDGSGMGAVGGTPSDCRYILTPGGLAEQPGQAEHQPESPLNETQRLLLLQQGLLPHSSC
Nature of the assay: HTRF KinEASE-TK biochemical potency, TYRO3. The note with it: 1 nM TYRO3, 700 μM ATP. Put shortly:
as §1

Bounds are passed on as bounds.

Regarding `O=C1NCCOc2cc(-c3n[nH]c4ncc(-c5ccc6c(c5)CCC(N[C@H]5CCOC5)C6)cc34)ccc21` (stereo partly drawn) [Example 4, 8-[5-(6-{[(3S)—Oxolan-3-yl]amino}-5,6,7,8-tetrahydronaphthalen-2-yl)-1H-pyrazolo[3,4-b]pyridin-3-yl]-2,3,4,5-tetrahydro-1,4-benzoxazepin-5-one], the IC50 at Axl and on recombinant human TYRO3 was under 100 nM throughout.
On to `O=C1NCCOc2cc(-c3n[nH]c4ncc(-c5ccc6c(c5)CCN(C5CC5)C6)cc34)ccc21` [Example 21, 8-(5-(2-Cyclopropyl-1,2,3,4-tetrahydroisoquinolin-6-yl)-1H-pyrazolo[3,4-b]pyridin-3-yl)-3,4-dihydrobenzo[f][1,4]oxazepin-5(2H)-one], for which the IC50 at Axl was under 100 nM; at recombinant human TYRO3, 100 to 1000 nM.
The corresponding values for `O=C1NCCOc2cc(-c3n[nH]c4ncc(-c5ccc6c(c5)CCC(N5CCNCC5)CC6)cc34)ccc21` (centres unmarked) [Example 48, 8-{5-[7-(Piperazin-1-yl)-6,7,8,9-tetrahydro-5H-benzo[7]annulen-2-yl]-1H-pyrazolo[3,4-b]pyridin-3-yl}-2,3,4,5-tetrahydro-1,4-benzoxazepin-5-one] are under 100 nM and under 100 nM.
In the case of `CC1(C)NS(=O)(=O)c2cc(-c3n[nH]c4ncc(-c5ccc6c(c5)CCC(N5CCC[C@@H]5CO)CC6)cc34)ccc21` (stereo partly drawn) [Example 34, 6-(5-{7-[(2R)-2-(Hydroxymethyl)pyrrolidin-1-yl]-6,7,8,9-tetrahydro-5H-benzo[7]annulen-2-yl}-1H-pyrazolo[3,4-b]pyridin-3-yl)-3,3-dimethyl-2,3-dihydro-1λ^6,2-benzothiazole-1,1-dione], the half-inhibitory concentration (IC50) against Axl and on recombinant human TYRO3 was under 100 nM in each case.
On to `O=C1NCCOc2cc(-c3n[nH]c4ncc(-c5ccc6c(c5)CCC(N[C@@H]5CCOC5)CC6)cc34)ccc21` (stereo partly drawn) [Example 46, 8-[5-(7-{[(3R)—Oxolan-3-yl]amino}-6,7,8,9-tetrahydro-5H-benzo[7]annulen-2-yl)-1H-pyrazolo[3,4-b]pyridin-3-yl]-2,3,4,5-tetrahydro-1,4-benzoxazepin-5-one], for which the IC50 on Axl and at recombinant human TYRO3 was under 100 nM throughout.
Turning to `C[C@@H]1CCCN1C1CCc2ccc(-c3cnc4[nH]nc(-c5ccc6c(c5)C(=O)NC6(C)C)c4c3)cc2CC1` (stereo partly drawn) [Example 38, 3,3-Dimethyl-6-(5-{7-[(2R)-2-methylpyrrolidin-1-yl]-6,7,8,9-tetrahydro-5H-benzo[7]annulen-2-yl}-1H-pyrazolo[3,4-b]pyridin-3-yl)-2,3-dihydro-1H-isoindol-1-one], the 50% inhibitory concentration (IC50) at Axl and on recombinant human TYRO3 was under 100 nM throughout.
Turning to `Cc1c(-c2n[nH]c3ncc(-c4ccc5c(c4)CCC(N4CCC[C@H]4C)CC5)cc23)ccc2c1OCCNC2=O` (stereo partly drawn) [Example 41, 9-Methyl-8-(5-{7-[(2R)-2-methylpyrrolidin-1-yl]-6,7,8,9-tetrahydro-5H-benzo[7]annulen-2-yl}-1H-pyrazolo[3,4-b]pyridin-3-yl)-2,3,4,5-tetrahydro-1,4-benzoxazepin-5-one], the IC50 at Axl and at recombinant human TYRO3 was under 100 nM each time.
Turning to `C[C@@H]1CCCN1C1CCc2ccc(-c3cnc4[nH]nc(-c5ccc6c(c5)OCCNS6(=O)=O)c4c3)cc2CC1` (stereo partly drawn) [Example 66, 7-(5-{7-[(2R)-2-Methylpyrrolidin-1-yl]-6,7,8,9-tetrahydro-5H-benzo[7]annulen-2-yl}-1H-pyrazolo[3,4-b]pyridin-3-yl)-3,4-dihydro-2H-5,12,2-benzoxathiazepine-1,1-dione], the concentration for half-maximal inhibition (IC50) at Axl was under 100 nM; on recombinant human TYRO3, 100 to 1000 nM.
Consider `C[C@@H]1CCCN1C1CCc2ccc(-c3cnc4[nH]nc(-c5ccc6c(c5)O[C@@H](C)CNC6=O)c4c3)cc2CC1` (stereo partly drawn) [Example 62, (2S)-2-Methyl-8-(5-{7-[(2R)-2-methylpyrrolidin-1-yl]-6,7,8,9-tetrahydro-5H-benzo[7]annulen-2-yl}-1H-pyrazolo[3,4-b]pyridin-3-yl)-2,3,4,5-tetrahydro-1,4-benzoxazepin-5-one], for which the IC50 against Axl and on recombinant human TYRO3 was under 100 nM each time.
With `C[C@@H]1CNC(=O)c2ccc(-c3n[nH]c4ncc(-c5ccc6c(c5)CCC(N5CCC[C@H]5C)CC6)cc34)cc2O1` (stereo partly drawn) [Example 59, (2R)-2-Methyl-8-(5-{7-[(2R)-2-methylpyrrolidin-1-yl]-6,7,8,9-tetrahydro-5H-benzo[7]annulen-2-yl}-1H-pyrazolo[3,4-b]pyridin-3-yl)-2,3,4,5-tetrahydro-1,4-benzoxazepin-5-one], the concentration for half-maximal inhibition (IC50) against Axl and on recombinant human TYRO3 was under 100 nM each time.
`COCCN1CCc2cc(-c3cnc4[nH]nc(-c5ccc6c(c5)OCCNC6=O)c4c3)ccc2C1` [Example 13, 8-(5-(2-(2-Methoxyethyl)-1,2,3,4-tetrahydroisoquinolin-6-yl)-1H-pyrazolo[3,4-b]pyridin-3-yl)-3,4-dihydrobenzo[f][1,4]oxazepin-5(2H)-one]: the IC50 on Axl and on recombinant human TYRO3 was under 100 nM each time.
With `O=C1NCCOc2cc(-c3n[nH]c4ncc(-c5ccc6c(c5)CCC(N5CCCC5)CC6)cc34)ccc21` (racemic) [Example 1, 8-{5-[7-(Pyrrolidin-1-yl)-6,7,8,9-tetrahydro-5H-benzo[7]annulen-2-yl]-1H-pyrazolo[3,4-b]pyridin-3-yl}-2,3,4,5-tetrahydro-1,4-benzoxazepin-5-one], the IC50 against Axl and on recombinant human TYRO3 was under 100 nM in each case.
For the compound `O=C1NCCOc2cc(-c3n[nH]c4ncc(-c5ccc6c(n5)CCC(N5CCCC5)CC6)cc34)ccc21` (centres unmarked) [Example 63, 8-{5-[7-(Pyrrolidin-1-yl)-5H,6H,7H,8H,9H-cyclohepta[b]pyridin-2-yl]-1H-pyrazolo[3,4-b]pyridin-3-yl}-2,3,4,5-tetrahydro-1,4-benzoxazepin-5-one], the IC50 at Axl and on recombinant human TYRO3 was under 100 nM throughout.
On to `CC1(O)CCOc2cc(-c3n[nH]c4ncc(-c5ccc6c(c5)CCN(C5CCCC5)CC6)cc34)ccc21` (centres unmarked) [Example 26, 7-[5-(3-Cyclopentyl-2,3,4,5-tetrahydro-1H-3-benzazepin-7-yl)-1H-pyrazolo[3,4-b]pyridin-3-yl]-4-methyl-3,4-dihydro-2H-1-benzopyran-4-ol], for which the IC50 against Axl and on recombinant human TYRO3 was under 100 nM throughout.
As for `C[C@H]1CCCN1C1CCc2ccc(-c3cnc4[nH]nc(-c5ccc6c(c5)OCCNC6=O)c4c3)cc2CC1` (stereo partly drawn) [Example 43, 8-(5-{7-[(2S)-2-Methylpyrrolidin-1-yl]-6,7,8,9-tetrahydro-5H-benzo[7]annulen-2-yl}-1H-pyrazolo[3,4-b]pyridin-3-yl)-2,3,4,5-tetrahydro-1,4-benzoxazepin-5-one], the half-inhibitory concentration (IC50) against Axl and on recombinant human TYRO3 was under 100 nM in each case.
`O=C1NCCOc2cc(-c3n[nH]c4ncc(-c5ccc6c(c5)CCC(N5CC[C@@H](O)C5)CC6)cc34)ccc21` (stereo partly drawn) [Example 51, 8-(5-(7-((R)-3-Hydroxypyrrolidin-1-yl)-6,7,8,9-tetrahydro-5H-benzo[7]annulen-2-yl)-1H-pyrazolo[3,4-b]pyridin-3-yl)-3,4-dihydrobenzo[f][1,4]oxazepin-5(2H)-one]: the concentration for half-maximal inhibition (IC50) at Axl and on recombinant human TYRO3 was under 100 nM throughout.
